In US12448368B2, “Indole compounds as androgen receptor modulators” (NIDO BIOSCIENCES, INC., priority 2020, dated 2025):
pIC50: −log10 of the molar value.

target: T1, androgen receptor (AR) (Homo sapiens, UniProt P10275, T878A); assay: AR reporter assay in LNCaP cells expressing ARR2PB-FireflyLuc and CMV-RenillaLuc, antagonist mode (% remaining activity, IC50); assay type: cell-based; conditions: 48 h at 37° C., class symbols A-D, read-out: IC50
T1 construct: LNCaP cells expressing ARR2PB-FireflyLuc and CMV-RenillaLuc; endogenous in cells; host or cells: LNCaP cells carrying ARR2PB-FireflyLuc and CMV-RenillaLuc reporters
T1 sequence (P10275 1-920 T878A): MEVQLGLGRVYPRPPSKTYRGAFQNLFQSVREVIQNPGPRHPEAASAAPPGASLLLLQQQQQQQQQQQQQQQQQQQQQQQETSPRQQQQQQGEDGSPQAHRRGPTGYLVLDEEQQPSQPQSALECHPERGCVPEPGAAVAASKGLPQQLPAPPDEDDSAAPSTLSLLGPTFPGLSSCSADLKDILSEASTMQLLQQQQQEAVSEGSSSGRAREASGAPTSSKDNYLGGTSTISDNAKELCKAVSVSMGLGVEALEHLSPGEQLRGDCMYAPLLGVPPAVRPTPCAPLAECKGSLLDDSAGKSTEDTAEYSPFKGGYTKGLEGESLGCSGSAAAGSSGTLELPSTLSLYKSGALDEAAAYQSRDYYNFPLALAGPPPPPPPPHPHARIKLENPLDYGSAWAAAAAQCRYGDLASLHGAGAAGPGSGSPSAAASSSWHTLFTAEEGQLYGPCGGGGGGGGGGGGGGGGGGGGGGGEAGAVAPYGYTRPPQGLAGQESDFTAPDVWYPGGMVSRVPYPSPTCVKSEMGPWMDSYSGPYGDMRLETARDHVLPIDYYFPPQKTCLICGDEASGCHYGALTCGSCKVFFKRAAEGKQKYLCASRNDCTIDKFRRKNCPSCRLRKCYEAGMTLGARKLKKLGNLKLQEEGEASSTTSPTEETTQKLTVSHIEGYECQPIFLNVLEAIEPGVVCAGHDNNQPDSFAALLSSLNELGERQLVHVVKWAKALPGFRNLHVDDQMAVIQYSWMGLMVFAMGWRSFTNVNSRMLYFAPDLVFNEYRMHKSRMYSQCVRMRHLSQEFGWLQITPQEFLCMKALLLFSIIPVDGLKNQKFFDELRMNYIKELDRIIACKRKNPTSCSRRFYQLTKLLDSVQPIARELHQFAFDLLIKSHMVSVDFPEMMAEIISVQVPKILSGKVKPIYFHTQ
Method: LNCaP cells expressing ARR2PB-FireflyLuc and CMV-RenillaLuc were treated with indicated concentrations of test compounds, enzalutamide (negative control), or DHT (positive control)+/−0.5 nM DHT for 48 h at 37° C. […] Remaining activity (antagonist mode) was calculated as % Remaining Activity=100×[(Readsample−LCave)/(HCave−LCave)] where HC is cells treated with 0.5 nM DHT only and LC is cells treated with 10 uM enzalutamide+0.5 nM DHT. Activation (agonist mode) was calculated as % Activation=100×[(ReadSample−LCave)/(HCave−LCave)] where HC is cells treated with 1 uM DHT and LC is cells treated with DMSO. Dose response curves and IC50 values were calculated using non-linear regression analysis in XLfit.
The designation “A” indicates an IC50 value of >10 μM, “B” indicates an IC50 value between 1 μM and 10 μM; “C” indicates an IC50 value between 100 nM and 1 μM; and “D” indicates an IC50 value of less than 100 nM.

pIC50	Compound
< 5.00	Cc1nc(-c2c(C)[nH]c3c(C#N)cccc23)ccc1N [Compound 155]
6.00 to 7.00	CN1C(=O)c2ccc(-c3c[nH]c4c(C#N)cccc34)nc2C1(C)C [Compound 156]
< 5.00	COCCN1C(=O)c2ccc(-c3c[nH]c4c(C#N)cccc34)nc2C1(C)C [Compound 157]
< 5.00	CC1(C)c2nc(-c3c[nH]c4c(C#N)cccc34)ccc2C(=O)N1C1CCOC1 (centres unmarked) [Compound 158]
6.00 to 7.00	Cc1nc(-c2c[nH]c3c(C(F)(F)F)cccc23)ccc1N [Compound 159]
< 5.00	CC(=O)c1cccc2c(-c3ccc(N)c(C)n3)c[nH]c12 [Compound 160]
5.00 to 6.00	Cc1cccc(-c2c[nH]c3cc(C#N)ccc23)n1 [Compound 161]
5.00 to 6.00	Cc1cccc(-c2c[nH]c3ccc(C#N)cc23)n1 [Compound 162]
6.00 to 7.00	COCCNc1ccc(-c2c[nH]c3c(C#N)cccc23)nc1C [Compound 163]
6.00 to 7.00	Cc1nc(-c2c[nH]c3c(C#N)cccc23)ccc1NC1CCOC1 (centres unmarked) [Compound 164]
6.00 to 7.00	COCCOc1ccc(-c2c[nH]c3c(C#N)cccc23)nc1C [Compound 165]
> 7.00	COc1ccc(-c2c[nH]c3c(C#N)cccc23)nc1C [Compound 166]
5.00 to 6.00	COCCOc1cccc(-c2c[nH]c3c(C#N)cccc23)n1 [Compound 167]
< 5.00	N#Cc1cccc2c(-c3cccc(OC4CCNC4)n3)c[nH]c12 (centres unmarked) [Compound 168]
6.00 to 7.00	COCCOc1nc(-c2c[nH]c3c(C#N)cccc23)ccc1N [Compound 170]
> 7.00	N#Cc1cccc2c(-c3cnc(OC(F)F)c(N)c3)c[nH]c12 [Compound 171]
> 7.00	N#Cc1cccc2c(-c3cnc(N)c(OC(F)F)n3)c[nH]c12 [Compound 172]
5.00 to 6.00	CN1C(=O)c2ccc(-c3c[nH]c4c(C#N)cccc34)nc2C1(C)CO (centres unmarked) [Compound 173]
5.00 to 6.00	N#Cc1cccc2c(-c3cnccn3)c[nH]c12 [Compound 174]

pIC50	Compound
6.00 to 7.00	Cc1cncc(-c2c[nH]c3c(C#N)cccc23)n1 [Compound 175]
6.00 to 7.00	N#Cc1cccc2c(-c3ccccn3)c[nH]c12 [Compound 176]
6.00 to 7.00	COCCN(C)c1cncc(-c2c[nH]c3c(C#N)cccc23)n1 [Compound 177]
6.00 to 7.00	N#Cc1cccc2c(-c3cccc(N4CCC4)n3)c[nH]c12 [Compound 178]
6.00 to 7.00	Cc1nc2ccc(-c3c[nH]c4c(C#N)cccc34)cc2s1 [Compound 179]
5.00 to 6.00	N#Cc1cccc2c(-c3ccc4nc(N)sc4c3)c[nH]c12 [Compound 180]
6.00 to 7.00	Cc1nc(-c2c[nH]c3c(C#N)cccc23)cnc1NC1CCNC1 (centres unmarked) [Compound 181]
6.00 to 7.00	Cc1nc(-c2c[nH]c3c(C#N)cccc23)cnc1NC1CCN(C)C1 (centres unmarked) [Compound 182]
6.00 to 7.00	Cc1nc(-c2c[nH]c3c(C#N)cccc23)cnc1OC1CCNC1 (centres unmarked) [Compound 183]
6.00 to 7.00	CC1(C)NC(=O)c2ccc(-c3c[nH]c4c(C#N)c(F)ccc34)nc21 [Compound 184]
5.00 to 6.00	CC1(C)NC(=O)c2ccc(-c3c[nH]c4c(C#N)c(Cl)ccc34)nc21 [Compound 185]
6.00 to 7.00	Cc1nc(-c2c[nH]c3c(C(F)(F)F)cccc23)cnc1N [Compound 186]
> 7.00	CC1(C)NC(=O)c2ccc(-c3c[nH]c4c(C(F)(F)F)cccc34)nc21 [Compound 187]
6.00 to 7.00	CN1C(=O)c2ccc(-c3c[nH]c4c(C(F)(F)F)cccc34)nc2C1(C)C [Compound 188]
6.00 to 7.00	Cc1nc(-c2c[nH]c3c(C#N)cccc23)ccc1NCCO [Compound 190]
5.00 to 6.00	Cc1nc(-c2c[nH]c3c(C#N)cccc23)ccc1NC(C)C(=O)N(C)C (centres unmarked) [Compound 191]
6.00 to 7.00	N#Cc1cccc2c(-c3ccc(N)c(OC(F)F)n3)c[nH]c12 [Compound 192]
5.00 to 6.00	Cc1nc(-c2c[nH]c3c(C#N)cccc23)cnc1OC1CCN(C)C1 (centres unmarked) [Compound 193]
6.00 to 7.00	CC(=O)N1CCC(Oc2ncc(-c3c[nH]c4c(C#N)cccc34)nc2C)C1 (centres unmarked) [Compound 194]
